Inhibition data for seven compounds are collected here from PubChem BioAssay AID463149 (The Scripps Research Institute Molecular Screening Center, 2010).

The structures appear in SMILES notation.

As a reminder, the inhibition is the share of the control response that was lost under treatment.

What all share (assay): PME-1 inhibitors in HeLa proteome, late-stage follow-up, selectivity assay, cell lysate, gel-based competitive ABPP, fluorescence, powder samples (AID 463149);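 note: 0% = DMSO-treated band intensity and 100% = blank gel background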
The target of assay [1] is Protein phosphatase methylesterase 1 (Homo sapiens) (UniProt Q9Y570). As to conditions: HeLa soluble proteome, FP-Rh fluorescence, stronger effect = higher value.
Sequence of Protein phosphatase methylesterase 1 (Homo sapiens) (Q9Y570 whole entry, looked up): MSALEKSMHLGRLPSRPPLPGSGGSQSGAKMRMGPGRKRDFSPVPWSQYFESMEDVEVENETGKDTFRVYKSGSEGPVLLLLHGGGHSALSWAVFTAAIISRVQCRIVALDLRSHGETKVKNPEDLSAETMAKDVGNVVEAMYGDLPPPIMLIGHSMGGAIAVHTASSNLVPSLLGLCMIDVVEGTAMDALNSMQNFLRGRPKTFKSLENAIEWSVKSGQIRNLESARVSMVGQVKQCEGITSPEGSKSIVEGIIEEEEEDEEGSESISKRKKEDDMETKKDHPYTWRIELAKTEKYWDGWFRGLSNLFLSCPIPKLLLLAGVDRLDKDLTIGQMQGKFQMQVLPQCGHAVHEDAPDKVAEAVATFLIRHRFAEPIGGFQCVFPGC
Assay [2] deals with Anti-Target PREP. As to conditions: HeLa soluble proteome, FP-Rh fluorescence, measured here: Anti-Target PREP, stronger effect = higher value.
Assay [3] deals with Fatty acid synthase (Homo sapiens) (UniProt P49327). The following applies: HeLa soluble proteome, FP-Rh fluorescence, measured here: Anti-Target FAS, stronger effect = higher value.
Sequence of Fatty acid synthase (Homo sapiens) (P49327 whole entry, looked up): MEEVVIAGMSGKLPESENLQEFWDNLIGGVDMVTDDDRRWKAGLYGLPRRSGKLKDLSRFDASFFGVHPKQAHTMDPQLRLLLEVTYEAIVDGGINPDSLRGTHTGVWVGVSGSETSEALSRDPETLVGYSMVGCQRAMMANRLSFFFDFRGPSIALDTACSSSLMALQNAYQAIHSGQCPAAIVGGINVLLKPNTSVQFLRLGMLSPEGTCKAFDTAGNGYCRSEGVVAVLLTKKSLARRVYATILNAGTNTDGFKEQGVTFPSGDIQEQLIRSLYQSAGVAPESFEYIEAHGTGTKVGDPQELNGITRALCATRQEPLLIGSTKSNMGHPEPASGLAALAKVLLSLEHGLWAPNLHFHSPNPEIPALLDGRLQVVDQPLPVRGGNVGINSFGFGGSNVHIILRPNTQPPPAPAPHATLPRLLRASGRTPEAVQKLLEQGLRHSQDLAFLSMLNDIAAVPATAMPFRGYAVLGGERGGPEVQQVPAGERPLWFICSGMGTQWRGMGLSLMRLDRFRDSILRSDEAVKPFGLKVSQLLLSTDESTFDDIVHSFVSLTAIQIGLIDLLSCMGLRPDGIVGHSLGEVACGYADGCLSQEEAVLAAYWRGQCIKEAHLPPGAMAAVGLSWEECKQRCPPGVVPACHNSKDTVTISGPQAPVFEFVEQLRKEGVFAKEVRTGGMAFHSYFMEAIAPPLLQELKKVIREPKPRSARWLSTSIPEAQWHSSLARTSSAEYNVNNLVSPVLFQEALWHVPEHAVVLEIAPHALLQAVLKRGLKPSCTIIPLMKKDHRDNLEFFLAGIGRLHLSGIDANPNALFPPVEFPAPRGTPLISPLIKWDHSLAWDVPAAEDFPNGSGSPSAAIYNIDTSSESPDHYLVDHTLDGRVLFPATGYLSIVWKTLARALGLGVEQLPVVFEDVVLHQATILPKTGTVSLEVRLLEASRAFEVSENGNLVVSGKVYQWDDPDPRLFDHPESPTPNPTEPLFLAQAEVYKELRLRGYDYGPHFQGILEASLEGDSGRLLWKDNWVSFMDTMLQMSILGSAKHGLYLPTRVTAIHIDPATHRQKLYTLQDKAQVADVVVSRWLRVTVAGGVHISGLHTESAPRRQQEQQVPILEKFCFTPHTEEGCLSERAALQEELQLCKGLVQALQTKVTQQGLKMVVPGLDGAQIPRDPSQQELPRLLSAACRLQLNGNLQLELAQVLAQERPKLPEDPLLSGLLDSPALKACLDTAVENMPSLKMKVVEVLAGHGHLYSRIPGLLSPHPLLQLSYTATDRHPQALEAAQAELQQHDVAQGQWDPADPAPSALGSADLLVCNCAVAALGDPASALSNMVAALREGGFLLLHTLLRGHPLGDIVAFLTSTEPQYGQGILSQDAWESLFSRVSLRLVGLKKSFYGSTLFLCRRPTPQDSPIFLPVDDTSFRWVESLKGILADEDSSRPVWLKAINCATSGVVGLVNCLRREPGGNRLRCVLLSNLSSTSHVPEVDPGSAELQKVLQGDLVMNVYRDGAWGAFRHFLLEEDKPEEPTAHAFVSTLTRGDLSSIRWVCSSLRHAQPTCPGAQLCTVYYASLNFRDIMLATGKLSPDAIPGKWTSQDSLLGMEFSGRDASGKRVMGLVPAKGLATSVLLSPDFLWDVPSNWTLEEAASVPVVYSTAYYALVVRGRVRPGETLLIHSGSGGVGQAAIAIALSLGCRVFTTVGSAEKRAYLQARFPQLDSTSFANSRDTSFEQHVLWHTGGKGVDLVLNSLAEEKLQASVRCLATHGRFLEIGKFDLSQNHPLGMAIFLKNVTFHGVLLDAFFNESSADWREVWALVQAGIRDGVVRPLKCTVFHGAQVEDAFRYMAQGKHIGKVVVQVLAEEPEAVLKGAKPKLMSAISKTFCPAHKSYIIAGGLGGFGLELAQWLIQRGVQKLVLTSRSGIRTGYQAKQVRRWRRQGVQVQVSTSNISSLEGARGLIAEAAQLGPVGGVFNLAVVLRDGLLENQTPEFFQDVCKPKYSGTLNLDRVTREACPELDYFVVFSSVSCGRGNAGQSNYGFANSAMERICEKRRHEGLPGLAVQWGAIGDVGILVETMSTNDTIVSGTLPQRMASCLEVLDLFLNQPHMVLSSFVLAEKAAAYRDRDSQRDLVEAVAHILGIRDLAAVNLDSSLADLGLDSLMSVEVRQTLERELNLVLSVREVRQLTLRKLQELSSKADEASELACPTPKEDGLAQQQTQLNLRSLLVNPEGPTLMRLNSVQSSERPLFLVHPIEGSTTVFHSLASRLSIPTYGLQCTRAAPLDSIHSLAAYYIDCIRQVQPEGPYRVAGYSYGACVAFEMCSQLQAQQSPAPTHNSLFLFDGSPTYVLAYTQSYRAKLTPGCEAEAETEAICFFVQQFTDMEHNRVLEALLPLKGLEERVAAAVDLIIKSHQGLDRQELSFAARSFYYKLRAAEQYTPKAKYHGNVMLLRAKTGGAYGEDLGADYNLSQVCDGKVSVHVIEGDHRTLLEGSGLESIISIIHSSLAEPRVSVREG
Assay [4] concerns the target Acylamino-acid-releasing enzyme (Homo sapiens) (UniProt P13798). The following applies: HeLa soluble proteome, FP-Rh fluorescence, measured here: Anti-Target APEH, stronger effect = higher value.
Assay [5] deals with Anti-Target ABHD10. The following applies: HeLa soluble proteome, FP-Rh fluorescence, stronger effect = higher value.
Assay [6] has as its system Anti-Target CES. The following applies: HeLa soluble proteome, FP-Rh fluorescence, measured here: Anti-Target CES, stronger effect = higher value.
Where [7] appears, read: measured here: Anti-Target ABHD10, at 1 µM.
Where [8] appears, read: measured here: Anti-Target ABHD10, at 20 µM.

Sequence of Acylamino-acid-releasing enzyme (Homo sapiens) (P13798 whole entry, looked up): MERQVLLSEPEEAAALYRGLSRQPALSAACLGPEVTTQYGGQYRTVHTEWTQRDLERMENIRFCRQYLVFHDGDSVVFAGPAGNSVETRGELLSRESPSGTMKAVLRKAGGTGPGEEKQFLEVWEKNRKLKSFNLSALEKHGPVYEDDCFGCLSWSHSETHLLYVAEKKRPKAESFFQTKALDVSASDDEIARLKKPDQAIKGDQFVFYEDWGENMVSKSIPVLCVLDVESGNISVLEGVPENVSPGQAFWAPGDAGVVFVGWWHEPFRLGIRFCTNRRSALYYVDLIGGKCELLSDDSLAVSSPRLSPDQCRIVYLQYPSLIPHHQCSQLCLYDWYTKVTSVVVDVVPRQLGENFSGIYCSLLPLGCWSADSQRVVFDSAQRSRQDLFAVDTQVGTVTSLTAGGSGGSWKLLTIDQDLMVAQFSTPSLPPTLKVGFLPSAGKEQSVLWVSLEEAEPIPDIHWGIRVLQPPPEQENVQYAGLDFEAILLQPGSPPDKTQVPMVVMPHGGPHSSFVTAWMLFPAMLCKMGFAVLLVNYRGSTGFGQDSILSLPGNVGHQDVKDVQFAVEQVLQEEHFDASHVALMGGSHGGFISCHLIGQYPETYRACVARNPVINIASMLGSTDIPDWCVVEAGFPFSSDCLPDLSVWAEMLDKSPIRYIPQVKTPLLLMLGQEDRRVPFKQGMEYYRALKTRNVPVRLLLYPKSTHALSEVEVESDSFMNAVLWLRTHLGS

As to `COC(=O)N1C(=O)[C@@](c2ccccc2)(C2CCCCC2)N1C(=O)OC`, the inhibition in assay [1] (PME-1, inhibition, at 1 µM) came out at 100%; in assay [1] (PME-1, inhibition, at 20 µM), 100%; in assay [2] (at 1 µM), 0%; in assay [2] (at 20 µM), 0%; in assay [3] (at 1 µM), 0%; in assay [3] (at 20 µM), 0%. Also, the inhibition in assay [4] (at 1 µM), in assay [4] (at 20 µM), in assay [5] (setting [7]), in assay [5] (setting [8]), in assay [6] (at 1 µM) and in assay [6] (at 20 µM) was 0% in each case.
As for `CC[C@]1(c2cccc(C)c2)C(=O)N(C(=O)OC)N1C(=O)OC`, the inhibition was 50% in assay [1] (PME-1, inhibition, at 1 µM); 100% in assay [1] (PME-1, inhibition, at 20 µM); 0% in assay [2] (at 1 µM); 0% in assay [2] (at 20 µM); 0% in assay [3] (at 1 µM); more than 50% in assay [3] (at 20 µM). Besides, the inhibition was 0% in assay [4] (at 1 µM); 0% in assay [4] (at 20 µM); 0% in assay [5] (setting [7]); 0% in assay [5] (setting [8]); more than 50% in assay [6] (at 1 µM); more than 50% in assay [6] (at 20 µM).
`COC(=O)N1C(=O)[C@](c2ccsc2)(C(C)C)N1C(=O)OC`: the inhibition amounted to 50% in assay [1] (PME-1, inhibition, at 1 µM); 100% in assay [1] (PME-1, inhibition, at 20 µM); 0% in assay [2] (at 1 µM); 0% in assay [2] (at 20 µM); 0% in assay [3] (at 1 µM); 0% in assay [3] (at 20 µM). Further, the inhibition in assay [4] (at 1 µM), in assay [4] (at 20 µM), in assay [5] (setting [7]), in assay [5] (setting [8]), in assay [6] (at 1 µM) and in assay [6] (at 20 µM) was 0% in each case.
In the case of `COC(=O)N1C(=O)[C@@](c2ccc(OC)cc2)(C(C)C)N1C(=O)OC`, the inhibition in assay [1] (PME-1, inhibition, at 1 µM) amounted to 0%; in assay [1] (PME-1, inhibition, at 20 µM), 50%; in assay [2] (at 1 µM), 0%; in assay [2] (at 20 µM), 0%; in assay [3] (at 1 µM), 0%; in assay [3] (at 20 µM) it was 0%. In addition, the inhibition in assay [4] (at 1 µM) was 0%; in assay [4] (at 20 µM), 0%; in assay [5] (setting [7]) it was 0%; in assay [5] (setting [8]), 0%; in assay [6] (at 1 µM), 0%; in assay [6] (at 20 µM), more than 50%.
As to `COC(=O)N1C(=O)[C@@](c2ccccc2)(C(C)C)N1C(=O)OC`, the inhibition in assay [1] (PME-1, inhibition, at 1 µM) was determined as 0%; in assay [1] (PME-1, inhibition, at 20 µM) it was 100%; in assay [2] (at 1 µM), 0%; in assay [2] (at 20 µM), 0%; in assay [3] (at 1 µM), 0%; in assay [3] (at 20 µM) it was 0%. The inhibition in assay [4] (at 1 µM) is 0%; in assay [4] (at 20 µM), 0%; in assay [5] (setting [7]) it was 0%; in assay [5] (setting [8]), 0%; in assay [6] (at 1 µM), 0%; in assay [6] (at 20 µM), more than 50%.
Turning to `COC(=O)N1C(=O)[C@@](Cc2ccccc2)(c2ccccc2)N1C(=O)OC`, the inhibition stood at 0% in assay [1] (PME-1, inhibition, at 1 µM); 50% in assay [1] (PME-1, inhibition, at 20 µM); 0% in assay [2] (at 1 µM); 0% in assay [2] (at 20 µM); 0% in assay [3] (at 1 µM); 0% in assay [3] (at 20 µM). For the same compound, the inhibition in assay [4] (at 1 µM) is 0%; in assay [4] (at 20 µM), 0%; in assay [5] (setting [7]) it was 0%; in assay [5] (setting [8]), 50%; in assay [6] (at 1 µM) it was more than 50%; in assay [6] (at 20 µM), more than 50%.
Consider `COC(=O)N1C(=O)[C@@](c2ccccc2)(C2CCCC2)N1C(=O)OC`, for which the inhibition in assay [1] (PME-1, at 0.1 µM) turned out to be 50%; in assay [1] (PME-1, inhibition, at 1 µM), 100%; in assay [1] (PME-1, inhibition, at 20 µM) it was 100%; in assay [2] (at 1 µM), 0%; in assay [2] (at 20 µM) it was 0%; in assay [3] (at 1 µM) it was 0%. Besides, the inhibition in assay [3] (at 20 µM), in assay [4] (at 1 µM), in assay [4] (at 20 µM), in assay [5] (setting [7]), in assay [5] (setting [8]) and in assay [6] (at 1 µM) was 0% in each case. The same compound gave an inhibition in assay [6] (at 20 µM) of 0%.
